ChEMBL document CHEMBL5154737, “Semisynthesis and biological evaluation of (+)-sclerotiorin derivatives as antitumor agents for the treatment of hepatocellular carcinoma” (Eur J Med Chem, 2022)
Active and inactive are the calls of the source. The rule behind the calls is not given here.

Legend:
Bel-7402 [1] = test: Cytotoxicity against human Bel-7402 cells assessed as reduction in cell viability incubated for 72 hrs by MTT assay; format: functional, cell-based; conditions: Bel-7402, 72 h
[2] = Cytotoxicity against human Biu-87 cells assessed as reduction in cell viability incubated for 72 hrs by MTT assay; format: functional, cell-based; conditions: BIU87, 72 h
[3] = Toxicity in ICR mouse assessed as change in white blood cell count at 100 mg/kg, ip qd (reference value: 4.0 10^9/L); format: organism-based; conditions: in vivo
[4] = Toxicity in ICR mouse assessed as change in lymphocyte count at 100 mg/kg, ip qd (reference value: 3.0 10^9/L); format: organism-based; conditions: in vivo
[5] = Toxicity in ICR mouse assessed as change in neutrophile granulocytes level at 100 mg/kg, ip qd (reference value: 0.9 10^9/L); format: organism-based; conditions: in vivo
[6] = Toxicity in ICR mouse assessed as change in lymphocyte level at 100 mg/kg, ip qd (reference value: 75.2 %); format: organism-based; conditions: in vivo
[7] = Toxicity in ICR mouse assessed as change in red blood cell count at 100 mg/kg, ip qd (reference value: 7.05 10^12/L); format: organism-based; conditions: in vivo
[8] = Toxicity in ICR mouse assessed as change in hemoglobin level at 100 mg/kg, ip qd (reference value: 124 g/L); format: organism-based; conditions: in vivo
[9] = Toxicity in ICR mouse assessed as change in red blood cell specific volume at 100 mg/kg, ip qd (reference value: 36.1 %); format: organism-based; conditions: in vivo
[10] = Toxicity in ICR mouse assessed as change in red blood cell volume distribution width at 100 mg/kg, ip qd (reference value: 16.6 %); format: organism-based; conditions: in vivo
[11] = Toxicity in ICR mouse assessed as change in platelet count at 100 mg/kg, ip qd (reference value: 742 10^9/L); format: organism-based; conditions: in vivo
[12] = Toxicity in ICR mouse assessed as change in plateletcrit level at 100 mg/kg, ip qd (reference value: 0.415 %); format: organism-based; conditions: in vivo
Bel-7402 [13] = test: Cytotoxicity against human Bel-7402 cells assessed as inhibition rate at 5 uM by MTT assay; format: functional, cell-based; conditions: time 72.0 hrs, TDE = time-dependent effect
Bel-7402 [14] = test: Inhibition of cell proliferation in human Bel-7402 cells assessed as inhibition of colony formation incubated for 10 days by crystal violet based plate clone formation assay; format: functional; conditions: dose <= 2.0 µM, time 10.0 day, DDE = dose-dependent effect
Bel-7402 [15] = test: Cytotoxicity against human Bel-7402 cells assessed as inhibition of cell growth incubated for 72 hrs by MTT assay; format: functional, cell-based; conditions: dose 5.0 µM, DDE = dose-dependent effect
Bel-7402 [16] = test: Induction of apoptosis in human Bel-7402 cells assessed as viable cells at 0.313 uM incubated for 24 hrs by Annexin V and dead cell assay kit (reference value: 91.00%); format: functional; conditions: read-out: Activity
Bel-7402 [17] = test: Induction of apoptosis in human Bel-7402 cells assessed as early apoptotic cells at 0.313 uM incubated for 24 hrs by Annexin V and dead cell assay kit (reference value: 3.75 %); format: functional
Bel-7402 [18] = test: Induction of apoptosis in human Bel-7402 cells assessed as early apoptotic cells at 0.625 uM incubated for 24 hrs by Annexin V and dead cell assay kit (reference value: 3.75 %); format: functional
Bel-7402 [19] = test: Induction of apoptosis in human Bel-7402 cells assessed as late apoptotic cells at 0.625 uM incubated for 24 hrs by Annexin V and dead cell assay kit (reference value: 4.45 %); format: functional
Bel-7402 [20] = test: Induction of apoptosis in human Bel-7402 cells assessed as dead cells at 0.625 uM incubated for 24 hrs by Annexin V and dead cell assay kit (reference value: 0.80 %); format: functional
Bel-7402 [21] = test: Induction of apoptosis in human Bel-7402 cells assessed as viable cells at 1.25 uM incubated for 24 hrs by Annexin V and dead cell assay kit (reference value: 91.00%); format: functional; conditions: read-out: Activity
Bel-7402 [22] = test: Induction of apoptosis in human Bel-7402 cells assessed as dead cells at 2.5 uM incubated for 24 hrs by Annexin V and dead cell assay kit (reference value: 0.80 %); format: functional
Bel-7402 [23] = test: Induction of apoptosis in human Bel-7402 cells assessed as early apoptotic cells at 5 uM incubated for 24 hrs by Annexin V and dead cell assay kit (reference value: 3.75 %); format: functional
Bel-7402 [24] = test: Induction of apoptosis in human Bel-7402 cells assessed as late apoptotic cells at 5 uM incubated for 24 hrs by Annexin V and dead cell assay kit (reference value: 4.45 %); format: functional
Bel-7402 [25] = test: Induction of apoptosis in human Bel-7402 cells assessed as dead cells at 5 uM incubated for 24 hrs by Annexin V and dead cell assay kit (reference value: 0.80 %); format: functional
Bel-7402 [26] = test: Induction of apoptosis in human Bel-7402 cells assessed as increase in cleaved caspase-3 upto 2.5 uM incubated for 24 hrs by Western blot analysis; format: functional, cell-based
Bel-7402 [27] = test: Induction of apoptosis in human Bel-7402 cells assessed as increase in cleaved caspase-9 upto 2.5 uM incubated for 24 hrs by Western blot analysis; format: functional, cell-based
Bel-7402 [28] = test: Antitumor activity against human Bel-7402 cells xenografted in BALB/c nude mouse assessed as reduction in tumor growth at 20 mg/kg, ip qd measured every 2 days for 14 days; format: functional, organism-based; conditions: time 14.0 day
[29] = Toxicity in BALB/c nude mouse xenografted with Bel-7402 cells assessed as change in body weight at 20 mg/kg, ip qd measured every 2 days for 14 days; format: organism-based; conditions: in vivo, 336 h, time 14 day
[30] = Chronic toxicity in ICR mouse assessed as effect on spleen morphology at 100 mg/kg, ip qd measured after 26 days by H and E staining method; format: organism-based; conditions: in vivo, 624 h, time 26 day
[31] = Chronic toxicity in ICR mouse assessed as effect on lung morphology at 100 mg/kg, ip qd measured after 26 days by H and E staining method; format: organism-based; conditions: in vivo, 624 h, time 26 day
Bel-7402 [32] = test: Induction of ERK degradation in human Bel-7402 cells at 2.5 uM incubated for 24 hrs in presence of choro-quine by Western blot analysis; format: cell-based
[33] = Biodistribution in whole body of mouse bearing tumor measured after 1 hr by ICG dye based fluorescence imaging; format: ADME, organism-based; conditions: in vivo
[34] = Drug uptake in tumor of mouse bearing tumor measured after 24 hr by ICG dye based fluorescence imaging; format: ADME, tissue-based, Neoplasm; conditions: in vivo
[35] = Toxicity in BALB/c nude mouse xenografted with human Bel-7402 cells assessed as behavioural change at 10 to 20 mg/kg, ip bid; format: organism-based; conditions: in vivo, dose 10-20 mg/kg
[36] = Acute toxicity in ICR mouse assessed as behavioural change at 100 to 500 mg/kg, ip; format: organism-based; conditions: in vivo, dose 100-500 mg/kg
Bel-7402 [37] = test: Induction of apoptosis in human Bel-7402 cells assessed as viable cells at 2.5 uM incubated for 24 hrs by Annexin V and Dead cell kit assay (reference value: 90.82 %); format: functional; conditions: read-out: Activity
Bel-7402 [38] = test: Induction of apoptosis in human Bel-7402 cells assessed as viable cells at 2.5 uM incubated for 24 hrs in presence of U0126 by Annexin V and Dead cell kit assay (reference value: 90.82 %); format: functional; conditions: read-out: Activity

In the case of `CC[C@H](C)/C=C(C)/C=C/C1=CC2=C(Cl)C(=O)[C@](C)(O)C(=O)C2=CN1Cc1ccc(OC(F)(F)F)cc1`, the IC50 (Bel-7402 [1]) is reported as 1.15 µM, the IC50 [2] is reported as 2.76 µM and the Activity [3] is reported as 3.4 10^9/L. The Activity [4] was 1.7 10^9/L, the Activity [5] was 1.4 10^9/L and the Activity [6] was 50.3%. For the same compound, the Activity [7] was 8.37 10^12/L, the Activity [8] was 141 g/L and the Activity [9] was 46%. The Activity [10] was 13.5%, the Activity [11] was 608 10^9/L and the Activity [12] was 0.407%. The Activity (Bel-7402 [13]) was “Tde”, the Activity (Bel-7402 [14]) was “Dde” and the Activity (Bel-7402 [15]) was “Dde”. For the same compound, the viability at 0.313 µM (Bel-7402 [16]) was 94.3%, the Activity (Bel-7402 [17]) was 3.75% and the Activity (Bel-7402 [18]) was 4.7%. The Activity (Bel-7402 [19]) was 3.1%, the Activity (Bel-7402 [20]) was 0.6% and the viability at 1.25 µM (Bel-7402 [21]) was 88.4%. It also gave an Activity (Bel-7402 [22]) of 3.35%, an Activity (Bel-7402 [23]) of 8.1% and an Activity (Bel-7402 [24]) of 75.55%. The Activity (Bel-7402 [25]) was 8.15%, the Activity (Bel-7402 [26]) was “Active” and the Activity (Bel-7402 [27]) was “Active”. For the same compound, the TGI (Bel-7402 [28]) was “Active”, the Activity [29] was “Non-Toxic” and the Activity [30] was “Non-Toxic”. The Activity [31] was “Non-Toxic”, the Activity (Bel-7402 [32]) was “Active” and the Activity [33] was “Active”. The Drug uptake [34] was “Active”, the Activity [35] was “Non-Toxic” and the Activity [36] was “Non-Toxic”. The viability at 2.5 µM (Bel-7402 [37]) was 25.1% and the viability at 2.5 µM (Bel-7402 [38]) was 29.2%.
